Measurements: patent US10463671B2, “Combination therapy for treating cancer” (Epizyme, Inc., priority 2013, dated 2019)
Where two headings read alike, the source gives them in different places. Marks after values point to notes of the source that are not given here.

How the values were obtained:
[1] = test system: WSU-DLCL2 cells; assay: Medium throughput combination proliferation assay (CellTiter-Glo, Chou-Talalay CI / potency shift); details: for IC50: Homo sapiens, WSUDLCL2, 72 h, read-out: Potency (IC50); for Summary of Combinations with Compound 44: WSU-DLCL2 (EZH2 Mutant GCB), drug combined with Compound 44; for growth inhibition by the drug by itself: WSU-DLCL2 (EZH2 mutant); for 1/α: combination with Compound 44
[2] = test system: SU-DHL-10 cells; assay: as above; details: for CI range (combination index) / 1/α: SU-DHL-10; for CI range (combination index): combination with Compound 44 at constant ratio, CI range above Fractional effect of 0.5; for IC50: read-out: Potency (IC50), SU-DHL-10 (GCB sub-type EZH2 Y646F), after 3 days of dosing; for IC50 / growth inhibition by the drug by itself: single agent; for 1/α: combination with Compound 44; for Summary of Combinations with Compound 44: SU-DHL10 (EZH2 Mutant GCB), drug combined with Compound 44; for growth inhibition by the drug by itself: SU-DHL10 (EZH2 mutant)
[3] = test system: DOHH2 cells; assay: as above; details: for IC50: read-out: Potency (IC50), DOHH-2 (GCB sub-type WT EZH2), single agent, after 3 days of dosing; for 1/α: DOHH2, combination with Compound 44, data normalized to individual 6438 concentrations instead of DMSO; for Summary of Combinations with Compound 44: DOHH2 (EZH2 WT GCB), drug combined with Compound 44
[4] = test system: SU-DHL-5 cells; assay: as above; details: for IC50: Homo sapiens, SU-DHL-5, 72 h, read-out: Potency (IC50); for 1/α: combination with Compound 44
[5] = test system: OCI-LY19 cells; assay: as above; details: for IC50: Homo sapiens, OCI-LY19, 72 h, read-out: Potency (IC50); for 1/α: OCI-LY19, combination with Compound 44
[6] = test system: Toledo cells; assay: as above; details: for IC50: read-out: Potency (IC50), single agent, dosed for 5 days; for IC50 / 1/α: Toledo; for 1/α: combination with Compound 44; for Summary of Combinations with Compound 44: Toledo (EZH2 WT GCB), drug combined with Compound 44
[7] = test system: SU-DHL6 cells; assay: as above; assay type: cell-based; details: SU-DHL6 (EZH2 Mutant GCB); drug combined with Compound 44
[8] = test system: Sestrin 1 (SESN1), TNF and GILZ expression; details: all cell lines; 4 days
Protocol: Gene expression was normalized to array's B2M and fold change compared to DMSO was calculated using the ΔΔCt method.

[9] = test system: H3K27 acetylation levels; details: WSU-DLCL2, OCI-LY19, RL cells; 4 days
Protocol: Acid extracted histones were analyzed by western blot for H3K27 acetylation levels.

[10] = test system: H3K27Me3 levels; details: single agent, four day treatment

| Compound | IC50 [2] [nM] | IC50 [4] [nM] | IC50 [5] [nM] | IC50 [1] [nM] | IC50 [3] [nM] | 1/α [5] | IC50 [6] [nM] | 1/α [3] | 1/α [6] | Summary of Combinations with Compound 44 [1] | Summary of Combinations with Compound 44 [2] | further results |
| --- | --- | --- | --- | --- | --- | --- | --- | --- | --- | --- | --- | --- |
| COc1cccc2c1C(=O)c1c(O)c3c(c(O)c1C2=O)C[C@@](O)(C(=O)CO)C[C@@H]3O[C@H]1C[C@H](N)[C@H](O)[C@H](C)O1 [Doxorubicin] | – | – | – | – | – | – | – | – | – | Synergy | Additive | Summary of Combinations with Compound 44 [7]: Additive; growth inhibition by the drug by itself ([1]; single agent): concentration-dependent growth inhibition; growth inhibition by the drug by itself [2]: concentration-dependent growth inhibition; Summary of Combinations with Compound 44 [3]: No effect; Summary of Combinations with Compound 44 [6]: No effect |
| C=CC(=O)N1CCC[C@@H](n2nc(-c3ccc(Oc4ccccc4)cc3)c3c(N)ncnc32)C1 [Ibrutinib] | 1150 | 1330 | > 10000 | 278 | 956 | No effect | > 10000 | 0.67 | No effect | – | – | – |
| CC[C@H](Nc1ncnc2[nH]cnc12)c1nc2cccc(F)c2c(=O)n1-c1ccccc1 [Idelalisib] | 8430 | 2590 | > 10000 | 2050 | 2980 | No effect | 9800 | 0.59 | 1.1^ | very strong synergy | very strong synergy | – |
| COC1=CC(c2cc3ccccc3[nH]2)=N/C1=C\c1[nH]c(C)cc1C [Obatoclax] | 19.5 | 9.8 | 42 | 59 | 51 | 1.50 | 96 | – | – | – | – | CI range (combination index) ([1]; WSU-DLCL2, combination with Compound 44 at constant ratio, CI range above Fractional effect of 0.5): 1.10^e; CI range (combination index) [2]: 0.91-1.36^e; CI range (combination index) ([4]; SU-DHL-5, combination with Compound 44 at constant ratio, CI range above Fractional effect of 0.5): 1.26-1.61^e |
| C[C@]12C=CC(=O)C=C1CC[C@@H]1[C@@H]2[C@@H](O)C[C@@]2(C)[C@H]1CC[C@]2(O)C(=O)CO [Prednisolone] | > 1000 | 39 | 47 | – | 133 | 4.2 | > 1000 | 9.5 | No effect | Synergy | Synergy | Summary of Combinations with Compound 44 [7]: Synergy; TSC22D3/GILZ expression [8]: up-regulated; global H3K27 acetylation levels [9]: not affected; H3K27Me3 levels ([10]; OCI-LY19 cells): increase H3K27Me3 levels at higher doses; H3K27Me3 levels ([10]; RL cells): no effect; H3K27Me3 levels ([10]; WSU-DLCL2 cells): no effect; growth inhibition by the drug by itself ([1]; single agent): no sensitivity; 1/α ([1]; WSU-DLCL2): 9.7; growth inhibition by the drug by itself [2]: no sensitivity; 1/α [2]: 4.2; Summary of Combinations with Compound 44 [3]: Synergy; potency of the glucocorticoid agonist with addition of Compound 44 ([3]; DOHH2 EZH2 wild-type cells): increased; Summary of Combinations with Compound 44 ([4]; SU-DHL5 (EZH2 WT GCB), drug combined with Compound 44): Synergy; 1/α ([4]; SU-DHL-5): 7.6; Summary of Combinations with Compound 44 ([5]; OCI-LY-19 (EZH2 WT GCB), drug combined with Compound 44): Synergy; Summary of Combinations with Compound 44 [6]: No effect |
| CC(=O)Nc1cccc(-n2c(=O)n(C3CC3)c(=O)c3c(Nc4ccc(I)cc4F)n(C)c(=O)c(C)c32)c1 [Trametinib] | > 10000 | > 10000 | > 10000 | 8610 | > 10000 | No effect | > 10000 | – | No effect | – | – | – |
| CC[C@]1(O)C[C@H]2CN(CCc3c([nH]c4ccccc34)[C@@](C(=O)OC)(c3cc4c(cc3OC)N(C=O)[C@H]3[C@@](O)(C(=O)OC)[C@H](OC(C)=O)[C@]5(CC)C=CCN6CC[C@]43[C@@H]65)C2)C1 [Vincristine] | – | – | – | – | – | – | – | – | – | Additive | Additive | Summary of Combinations with Compound 44 [7]: Additive; Summary of Combinations with Compound 44 ([1]; listed as vincristine): Combination benefit; growth inhibition by the drug by itself ([1]; single agent): concentration-dependent growth inhibition; Summary of Combinations with Compound 44 ([2]; listed as vincristine): Combination benefit; growth inhibition by the drug by itself [2]: concentration-dependent growth inhibition; Summary of Combinations with Compound 44 [3]: No effect; Summary of Combinations with Compound 44 [6]: No effect |
| Rituximab: the antibody combined with chemotherapeutics in R-CHOP, targets cd-20 | – | – | – | – | – | – | – | – | – | – | – | 1/α ([1]; WSU-DLCL2): 2.6; Potency (IC50), Rituximab ([1]; WSU-DLCL2, single agent, after 3 days of dosing): >10^a μg/ml |

Further lines, with some results ahead:

| IC50 [2] [nM] | IC50 [4] [nM] | IC50 [5] [nM] | Compound | IC50 [1] [nM] | IC50 [3] [nM] | 1/α [5] | IC50 [6] [nM] | 1/α [3] | 1/α [6] | Summary of Combinations with Compound 44 [1] | Summary of Combinations with Compound 44 [2] | further results |
| --- | --- | --- | --- | --- | --- | --- | --- | --- | --- | --- | --- | --- |
| 3040 | > 10000 | 53 | CC1(C)CCC(CN2CCN(c3ccc(C(=O)NS(=O)(=O)c4ccc(NCC5CCOCC5)c([N+](=O)[O-])c4)c(Oc4cnc5[nH]ccc5c4)c3)CC2)=C(c2ccc(Cl)cc2)C1 [ABT-199] | 1940 | 77 | 4.20 | 190 | – | – | – | – | CI range (combination index) [2]: 1.2-1.4^e; 1/α ([4]; SU-DHL-5): No Effect |
| 8.6 | 4 | 12 | CC(C)C[C@H](NC(=O)[C@H](Cc1ccccc1)NC(=O)c1cnccn1)B(O)O [Bortezomib] | 6.5 | 6.6 | 1.67 | 4.3 | 0.96 | 0.96 | – | – | – |
| > 100 | 3.4 | 79 | C[C@@H]1C[C@H]2[C@@H]3CCC4=CC(=O)C=C[C@]4(C)[C@@]3(F)[C@@H](O)C[C@]2(C)[C@@]1(O)C(=O)CO [Dexamethasone] | > 10000 | 5.6 | 7.7 | > 100 | 4.2 | No effect | – | – | 1/α [2]: 3.7; Summary of Combinations with Compound 44 [6]: No effect |
| 0.854 | 0.72 | – | CO[C@H]1C[C@@H]2CC[C@@H](C)[C@@](O)(O2)C(=O)C(=O)N2CCCC[C@H]2C(=O)O[C@H]([C@H](C)C[C@@H]2CC[C@@H](OCCO)[C@H](OC)C2)CC(=O)[C@H](C)/C=C(\C)[C@@H](O)[C@@H](OC)C(=O)[C@H](C)C[C@H](C)/C=C/C=C/C=C/1C [Everolimus] | 0.653 | 0.13 | No effect | 0.1 | – | No effect | very strong synergy | very strong synergy | – |
| 275 | 162 | 304 | NC1(c2ccc(-c3nc4ccn5c(=O)[nH]nc5c4cc3-c3ccccc3)cc2)CCC1 [MK-2206] | 127 | 86 | 71.40 | 95 | 0.64 | – | very strong synergy | very strong synergy | – |
| > 10000 | > 10000 | 131 | CC1(C)CCC(c2ccc(Cl)cc2)=C(CN2CCN(c3ccc(C(=O)NS(=O)(=O)c4ccc(N[C@H](CCN5CCOCC5)CSc5ccccc5)c(S(=O)(=O)C(F)(F)F)c4)cc3)CC2)C1 [Navitoclax] | 3540 | 540 | 6.60 | 590 | – | No effect | – | – | 1/α ([4]; SU-DHL-5): No Effect |
| 2210 | 3760 | > 10000 | COc1cc(Nc2ncc(F)c(Nc3ccc4c(n3)NC(=O)C(C)(C)O4)n2)cc(OC)c1OC [Tamatinib] | 3420 | 1210 | No effect | 3200 | 0.81 | No effect | very strong synergy | very strong synergy | – |
